Consider two compounds from US10975060B2, “High relaxivity gadolinium chelate compounds for use in magnetic resonance imaging” (BAYER PHARMA AKTIENGESELLSCHAFT, priority 2016, dated 2021).

Common to all, as to type: physicochemical
A short description of series [1]: Relaxivity measurements at 3.0 T (whole body MRI scanner, 37 °C) in water and human plasma. Conditions: normalized to Gd, average ± standard deviation. As for the experimental part: Relaxivity Measurements at 3.0 T
Relaxivity measurements at 3.0 T were performed with a whole body 3.0 T MRI Scanner (Philips Intera, Philips Healthcare, Hamburg, Germany) using a knee-coil (SENSE-Knee-8, Philips Healthcare, Hamburg, Germany). The sample tubes (CryoTubetm Vials, Thermo Scientific 1.8 mL, Roskilde, Denmark) were positioned in 3 rows of 4 and 5 tubes in a plastic holder in a box filled with water. The temperature was adjusted to 37° C. For the MRI sequence the shortest possible echo-time (TE) with 7.46 milliseconds was used. The inversion times were chosen to optimize the sequence to measure T1 values corresponding to the estimated T1 range of all relaxation times of contrast media containing solutions. The following inversion times (TIs) were applied: 50, 100, 150, 200, 300, 500, 700, 1000, 1400, 2100, 3200, and 4500 milliseconds. The sequence was run with a constant relaxation delay of 3.4 seconds after the registration of the last echo (variable TR in the range from 3450 to 7900 milliseconds). For details of the fit procedure, see Rohrer et. al. (Invest. Radiol. 2005; 40, 11: 715-724). The experimental matrix of the phantom measurement was 320×320.
The relaxivities were evaluated using three different concentrations of each compound (3 concentrations between 0.05 and 2 mM).
The T1 relaxation times of Example compounds were measured in water and human plasma. Human plasma preparation: For each experiment fresh blood was taken from a volunteer using 10 mL citrate-tubes (Sarstedt S-Monovette 02.1067.001, 10 mL, Citrate). The 10 mL citrate-tubes were carefully inverted 10 times to mix blood and anticoagulant and centrifuged for 15 minutes at 1811 g at room temperature (Eppendorf, Centrifuge 5810R).
The relaxivities ri (where i=1, 2) were calculated on the basis of the measured relaxation rates Ri in water and plasma: Ri=Ri(0)+ri[CGd], where Ri(0) represent the relaxation rate of the respective solvent and CGd the concentration of the compound normalized to the Gadolinium (Table 2).

Series [2] is described as follows: Water solubility (exploratory, 10 mM Tris-HCl, 20 °C). Conditions: water (10 mM Tris-HCl buffer), pH 7.4. As for the experimental part: The exploratory water solubilities of the compounds were determined at room temperature (20° C.) in 0.5 mL buffer solution (10 mM Tris-HCl) in the microcentrifuge tubes (Eppendorf, 2.0 mL safe-lock caps). The solid compounds were added stepwise to the buffer solution. The suspension was mixed using a shaker (Heidolph Reax 2000) and treated 5 min in an ultrasound bath (Bandelin, Sonorex Super RK255H).

Series [3] is described as follows: Dynamic CT diffusion phantom study (dialysis cassette in fetal bovine serum). Particulars: dialysis cassette 20,000 MWCO, 20 mmol Gd/L, CT signal over 30 h. As for the experimental part: The described dynamic CT diffusion study compares the ability of Examples 1-10 and Reference compounds 1 and 4 to pass a semipermeable membrane (20 kDa). A 128-row clinical CT device (SOMATOM Definition, 128; Siemens Healthcare, Forchheim, Germany) was used to monitor the diffusion through a semipermeable membrane at 100 kV and 104 mA. Single measurements were performed at 0 min, 1 min, 2 min, 3 min, 5 min, 10 min, 15 min, 20 min, 30 min, 45 min, 60 min, 2 h, 3 h, 5 h, 7 h, 22 h, 24 h, 30 h after placing the dialysis cassette (Slide-A-Lyser, 20,000 MWCO, 0.1-0.5 mL Capacity, Thermo Scientific, Roskilde, Denmark) filled with contrast agent in fetal bovine serum solution (FBS, Sigma, F7524). The images were reconstructed with a slice thickness of 2.4 mm and a B30 convolution kernel. The used concentration in the dialysis cassettes of the investigated Examples 1-10 and Reference compounds 1 and 4 was 20 mmol Gd/L.
The imaging results for all investigated Examples and the Reference compounds 1 and 4 for the time points 0 min and 30 h after placing the cassettes in the FBS solution are depicted in FIG. 1. For image analysis, regions of interest were manually drawn on 1 centrally located slice for each time point (a representative measurement region is indicated in FIG. 1: Image RC1).

The nature of series [4]: Relaxivity measurements at 1.4 T (MiniSpec mq60, 60 MHz, 37 °C) in water and human plasma. Conditions: 1.41 T, normalized to Gd. As for the experimental part:
Relaxivity Measurements at 1.4 T
Relaxivity measurements at 1.41 T were performed using a MiniSpec mq60 spectrometer (Bruker Analytik, Karlsruhe, Germany) operating at a resonance frequency of 60 MHz and a temperature of 37° C. The T1 relaxation times were determined using the standard inversion recovery (IR) method with a fixed relaxation delay of at least 5×T1. The variable inversion time (TI) was calculated automatically by the standard software of the MiniSpec mq60 (8 steps). The T2 measurements were done by using a Carr-Purcell-Meiboom-Gill (CPMG) pulse sequence, applying a relaxation delay of at least 5×T1.
Each relaxivity measurement was performed using three different Gd concentrations (3 concentrations between 0.05 and 2 mM). The T1 and T2 relaxation times of the example compounds 1 to 10 were measured in different media for example in water and human plasma. Human plasma preparation: For each experiment fresh blood was taken from a volunteer using 10 mL citrate-tubes (Sarstedt S-Monovette 02.1067.001, 10 mL, Citrate). The 10 mL citrate-tubes were carefully inverted 10 times to mix blood and anticoagulant and centrifuged for 15 minutes at 1811 g at room temperature (Eppendorf, Centrifuge 5810R).
The relaxivities ri (where i=1, 2) were calculated on the basis of the measured relaxation rates Ri in water and plasma: Ri=Ri(0)+ri[CGd], where Ri(0) represent the relaxation rate of the respective solvent and CGd the concentration of the compound normalized to the Gadolinium. The Gadolinium concentrations of the investigated solutions were verified by Inductively Coupled Plasma Mass Spectrometry (ICP-MS Agilent 7500a, Waldbronn, Germany).

In series [1], `CCN(CC(=O)NCC(CNC(=O)CN(CC)C(=O)CN1CCN(CC(=O)[O-])CCN(CC(=O)[O-])CCN(CC(=O)[O-])CC1)(CNC(=O)CN(CC)C(=O)CN1CCN(CC(=O)[O-])CCN(CC(=O)[O-])CCN(CC(=O)[O-])CC1)CNC(=O)CN(CC)C(=O)CN1CCN(CC(=O)[O-])CCN(CC(=O)[O-])CCN(CC(=O)[O-])CC1)C(=O)CN1CCN(CC(=O)[O-])CCN(CC(=O)[O-])CCN(CC(=O)[O-])CC1.[Gd+3].[Gd+3].[Gd+3].[Gd+3]` [Example 2, Tetragadolinium [4,10-bis(carboxylatomethyl)-7-{3,13-diethyl-8,8-bis({[(ethyl{[4,7,10-tris(carboxylatomethyl)-1,4,7,10-tetraazacyclododecan-1-yl]acetyl}amino)acetyl]-amino}methyl)-2,5,11,14-tetraoxo-15-[4,7,10-tris(carboxylatomethyl)-1,4,7,10-tetraaza-cyclododecan-1-yl]-3,6,10,13-tetraazapentadec-1-yl}-1,4,7,10-tetraazacyclododecan-1-yl]acetate] registered a r1 human plasma of 11.3 ± 0.1 L/mmol/s and a r1 water of 9.4 ± 0.1 L/mmol/s. Besides, the Solubility in series [2] is given as over 1000 mg/100 mL. The “Diffusion half-live (20 kDa)” value in series [3] worked out at 13.3 h. For the same compound, in series [4], the r1 human plasma worked out at 11.6 L/mmol/s and the r1 water stood at 10.4 L/mmol/s.
Turning to `O=C([O-])CN1CCN(CC(=O)[O-])CCN(CC(=O)N(CC(=O)NCC(CNC(=O)CN(C(=O)CN2CCN(CC(=O)[O-])CCN(CC(=O)[O-])CCN(CC(=O)[O-])CC2)C2CCCC2)(CNC(=O)CN(C(=O)CN2CCN(CC(=O)[O-])CCN(CC(=O)[O-])CCN(CC(=O)[O-])CC2)C2CCCC2)CNC(=O)CN(C(=O)CN2CCN(CC(=O)[O-])CCN(CC(=O)[O-])CCN(CC(=O)[O-])CC2)C2CCCC2)C2CCCC2)CCN(CC(=O)[O-])CC1.[Gd+3].[Gd+3].[Gd+3].[Gd+3]` [Example 8, Tetragadolinium [4,10-bis(carboxylatomethyl)-7-{3,13-dicyclopentyl-8,8-bis({[(cyclopentyl{[4,7,10-tris(carboxylatomethyl)-1,4,7,10-tetraazacyclododecan-1-yl]acetyl}-amino)acetyl]amino}methyl)-2,5,11,14-tetraoxo-15-[4,7,10-tris(carboxylatomethyl)-1,4,7,10-tetraazacyclododecan-1-yl]-3,6,10,13-tetraazapentadec-1-yl}-1,4,7,10-tetra-azacyclododecan-1-yl]acetate], the figures for the r1 human plasma in series [1] and in series [4] were 12.0 ± 0.4 L/mmol/s and 14.1 L/mmol/s, respectively. For the same compound, the r1 water amounted to 10.7 ± 0.1 L/mmol/s in series [1] and 11.7 L/mmol/s in series [4]. The compound further registered a Solubility in series [2] of over 1000 mg/100 mL. Moreover, the “Diffusion half-live (20 kDa)” value in series [3] is on record as 10.5 h.
